We go through 18 compounds from patent EP4745138A1, “THIO-GLUTARIMIDO ISOINDOLINONE DERIVATIVE, BIFUNCTIONAL PROTEIN DEGRADER CONTAINING SAME, AND USES THEREOF” (Gluetacs Therapeutics (Shanghai) Co., Ltd., priority 2023, dated 2025).

The target in the experiment is T1, human Cereblon WT GST-tagged protein (Homo sapiens, UniProt Q96SW2).
T1 construct: purchased CISBIO 64BDCRBNPEH
The experiment in a line: CRBN-binding affinity, HTRF (CEREBLON BINDING kit). As to conditions: for inhibition at 0.5 µM: read-out: Inhibition Rate at 0.5 µM (%); for inhibition at 2 µM: read-out: Inhibition Rate at 2 µM (%). From the text:
The CEREBLON BINDING kits (specification: 10,000 tests; product number: Catalog # 64BDCRBNPEH; CISBIO company) was used to determine the CRBN binding ability of the compounds to be tested through a HTRF method (homogeneous time-resolved fluorescence). The specific methods are as follows: • 1. […] Specifically, diluent #9 (1X) solution was used as the diluent, and multiple concentration gradients were set. […] Into the 96-well plate, the diluted test compounds and corresponding detection reagents were added, resulting in final test compound concentrations of 2 µM and 0.5 µM, respectively. […] Then, 2.5 µL of human Cereblon WT GST-tagged protein solution was added to each well. Finally, 5 µL of the thoroughly mixed Thalidomide-Re reagent and GST Eu antibody working solution were added to each of the aforementioned wells. […] The blank control wells were sequentially added with 2.5 µL of diluent #9 (1X) solution, 2.5 µL of PROTAC binding buffer, and 5 µL of thoroughly mixed Thalidomide-Re reagent and GST Eu antibody working solution. • 4.

T1 sequence (Q96SW2 whole entry): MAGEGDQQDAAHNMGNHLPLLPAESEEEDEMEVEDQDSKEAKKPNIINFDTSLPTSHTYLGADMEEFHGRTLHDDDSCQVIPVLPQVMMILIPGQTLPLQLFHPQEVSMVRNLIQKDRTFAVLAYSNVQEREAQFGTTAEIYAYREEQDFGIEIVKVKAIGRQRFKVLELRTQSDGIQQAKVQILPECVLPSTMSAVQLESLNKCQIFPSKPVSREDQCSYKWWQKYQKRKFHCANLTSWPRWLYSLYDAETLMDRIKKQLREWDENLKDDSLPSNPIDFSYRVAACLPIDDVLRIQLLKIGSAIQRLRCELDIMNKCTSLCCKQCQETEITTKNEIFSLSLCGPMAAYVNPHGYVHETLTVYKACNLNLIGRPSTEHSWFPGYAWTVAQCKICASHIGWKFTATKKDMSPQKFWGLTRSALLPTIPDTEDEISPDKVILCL

Take `CCCc1cc(C)[nH]c(=O)c1CNC(=O)c1cc(-c2ccc(N3CCN(Cc4ccc5c(c4)CN(C4CCC(=O)NC4=O)C5=S)CC3)nc2)cc2c1cnn2C(C)C` (stereo not drawn) [GT-08885, 6-(6-(4-((2-(2,6-dioxopiperidin-3-yl)-1-thioxoisoindolin-5-yl)methyl)piperazin-1-yl)pyridin-3-yl)-1-isopropyl-N-((6-methyl-2-oxo-4-propyl-1,2-dihydropyridin-3-yl)methyl)-1H-indazole-4-carboxamide]: the inhibition – broadly, the drop in the measured response relative to a control, in per cent – at 0.5 µM lay within 40 to 53% and the inhibition at 2 µM was 60 to 80%.
Take `CCN(c1cc(-c2ccc(CN3CCN(Cc4ccc5c(c4)CN(C4CCC(=O)NC4=O)C5=S)CC3)cc2)cc(C(=O)NCc2c(C)cc(C)[nH]c2=O)c1C)C1CCOCC1` (stereo not drawn) [GT-08886, N-((4,6-dimethyl-2-oxo-1,2-dihydropyridin-3-yl)methyl)-4'-((4-((2-(2,6-dioxopiperidin-3-yl)-1-thioxoisoindolin-5-yl)methyl)piperazin-1-yl)methyl)-5-(ethyl(tetrahydro-2H-pyran-4-yl)amino)-4-methyl-[1,1-biphenyl]-3-carboxamide]: the inhibition at 0.5 µM lay within 53 to 60% and the inhibition at 2 µM lay in the range of 80 to 100%.
The corresponding values for `CCN(c1cc(-c2ccc(N3CCN(Cc4ccc5c(c4)CN(C4CCC(=O)NC4=O)C5=S)CC3)cc2)cc(C(=O)NCc2c(C)cc(C)[nH]c2=O)c1C)C1CCOCC1` (stereo not drawn) [GT-08887, N-((4,6-dimethyl-2-oxo-1,2-dihydropyridin-3-yl)methyl)-4'-(4-((2-(2,6-dioxopiperidin-3-yl)-1-thioxoisoindolin-5-yl)methyl)piperazin-1-yl)-5-(ethyl(tetrahydro-2H-pyran-4-yl)amino)-4-methyl-[1,1-biphenyl]-3-carboxamide] are 60 to 80% and 80 to 100%.
For `Cn1c2ccncc2c2ccc(-c3cnc(N4CCN(Cc5ccc6c(c5)CN(C5CCC(=O)NC5=O)C6=S)CC4)c(Cl)c3)cc21` (stereo not drawn) [GT-08978, 3-(5-((4-(3-chloro-5-(5-methyl-5H-pyrido[4,3-b]indol-7-yl)pyridin-2-yl)piperazin-1-yl)methyl)-1-thioxoisoindolin-2-yl)piperidine-2,6-dione], in that order: 60 to 80% and 60 to 80%.
The corresponding values for `Cc1cc(-c2ccc3c4cnccc4n(C)c3c2)cnc1N1CCN(Cc2ccc3c(c2)CN(C2CCC(=O)NC2=O)C3=S)CC1` (stereo not drawn) [GT-08980, 3-(5-((4-(3-methyl-5-(5-methyl-5H-pyrido[4,3-b]indol-7-yl)pyridin-2-yl)piperazin-1-yl)methyl)-1-thioxoisoindolin-2-yl)piperidine-2,6-dione] are 40 to 53% and 60 to 80%.
Consider `Cn1c2ccncc2c2ccc(-c3ccc(N4CCN(Cc5ccc6c(c5)CN(C5CCC(=O)NC5=O)C6=S)CC4)nc3)cc21` (stereo not drawn) [GT-08982, 3-(5-((4-(5-(5-methyl-5H-pyrido[4,3-b]indol-7-yl)pyridin-2-yl)piperazin-1-yl)methyl)-1-thioxoisoindolin-2-yl)piperidine-2,6-dione], for which the inhibition at 0.5 µM lay in the range of 60 to 80% and the inhibition at 2 µM lay in the range of 80 to 100%.
The corresponding values for `COc1ccc2cn(C3CCN(Cc4ccc5c(c4)CN(C4CCC(=O)NC4=O)C5=S)CC3)nc2c1NC(=O)c1cccc(C(F)(F)F)c1` (stereo not drawn) [GT-09413, N-(2-(1-((2-(2,6-dioxopiperidin-3-yl)-1-thioxoisoindolin-5-yl)methyl)piperidin-4-yl)-6-methoxy-2H-indazol-7-yl)-3-(trifluoromethyl)benzamide] are 60 to 80% and 100 to 110%.
The corresponding values for `COc1cc2nn(C3CCN(Cc4cccc5c4CN(C4CCC(=O)NC4=O)C5=S)CC3)cc2cc1NC(=O)c1cccc(C(F)(F)F)c1` (stereo not drawn) [GT-09414, N-(2-(1-((2-(2,6-dioxopiperidin-3-yl)-1-thioxoisoindolin-4-yl)methyl)piperidin-4-yl)-6-methoxy-2H-indazol-5-yl)-3-(trifluoromethyl)benzamide] are 20 to 30% and 60 to 80%.
For `CC1(C)CCC(c2ccc(Cl)cc2)=C(CN2CCN(c3ccc(C(=O)NS(=O)(=O)c4ccc(N[C@H](CCN5CC6CCC(C5)N6Cc5ccc6c(c5)CN(C5CCC(=O)NC5=O)C6=S)CSc5ccccc5)c(S(=O)(=O)C(F)(F)F)c4)cc3)CC2)C1` (stereo partly drawn) [GT-09416, 4-(4-((4'-chloro-4,4-dimethyl-3,4,5,6-tetrahydro-[1,1'-biphenyl]-2-yl)methyl)piperazin-1-yl)-N-((4-(((2R)-4-(8-((2-(2,6-dioxopiperidin-3-yl)-1-thioxoisoindolin-5-yl)methyl)-3,8-diazabicyclo[3.2.1]octan-3-yl)-1-(phenylthio)butan-2-yl)amino)-3-((trifluoromethyl)sulfonyl)phenyl)sulfonyl)benzamide], in that order: 80 to 100% and 80 to 100%.
As to `O=C1CCC(N2Cc3cc(CN4CCN(c5ccc(-c6cc(F)c7c(c6)C(=O)N(C(C(=O)Nc6nccs6)c6ncn8c6CCC8)C7)cc5)CC4)ccc3C2=S)C(=O)N1` (stereo not drawn) [GT-09423, 2-(6,7-dihydro-5H-pyrrolo[1,2-c]imidazol-1-yl)-2-(6-(4-(4-((2-(2,6-dioxopiperidin-3-yl)-1-thioxoisoindolin-5-yl)methyl)piperazin-1-yl)phenyl)-4-fluoro-1-oxoisoindolin-2-yl)-N-(thiazol-2-yl)acetamide], the inhibition at 0.5 µM lay in the range of 53 to 60% and the inhibition at 2 µM lay in the range of 60 to 80%.
As to `CCc1cc2c(cc1N1CCN(Cc3ccc4c(c3)CN(C3CCC(=O)NC3=O)C4=S)CC1)C(C)(C)c1[nH]c3cc(C#N)ccc3c1C2=O` (stereo not drawn) [GT-09424, 8-(4-((2-(2,6-dioxopiperidin-3-yl)-1-thioxoisoindolin-5-yl)methyl)piperazin-1-yl)-9-ethyl-6,6-dimethyl-11-oxo-6,11-dihydro-5H-benzo[b]carbazole-3-carbonitrile], the inhibition at 0.5 µM lay within 40 to 53% and the inhibition at 2 µM was in the range of 60 to 80%.
As to `CN(C)C(=O)c1cc2cnc(Nc3ccc(N4CCN(Cc5ccc6c(c5)C(=S)N(C5CCC(=O)NC5=O)C6)CC4)cn3)nc2n1C1CCCC1` (stereo not drawn) [GT-09427, 7-cyclopentyl-2-((5-(4-((2-(2,6-dioxopiperidin-3-yl)-3-thioxoisoindolin-5-yl)methyl)piperazin-1-yl)pyridin-2-yl)amino)-N,N-dimethyl-7H-pyrrolo[2,3-d]pyrimidine-6-carboxamide], the inhibition at 0.5 µM was 60 to 80% and the inhibition at 2 µM fell in the range of 80 to 100%.
For `CC(=O)c1c(C)c2cnc(Nc3ccc(N4CCN(Cc5ccc6c(c5)C(=S)N(C5CCC(=O)NC5=O)C6)CC4)cn3)nc2n(C2CCCC2)c1=O` (stereo not drawn) [GT-09428, 3-(6-((4-(6-((6-acetyl-8-cyclopentyl-5-methyl-7-oxo-7,8-dihydropyrido[2,3-d]pyrimidin-2-yl)amino)pyridin-3-yl)piperazin-1-yl)methyl)-1-thioxoisoindolin-2-yl)piperidine-2,6-dione], in that order: 40 to 53% and 60 to 80%.
On to `O=C1CCC(N2Cc3cc(CN4CCC(NC(=O)c5n[nH]cc5NC(=O)c5c(Cl)cccc5Cl)CC4)ccc3C2=S)C(=O)N1` (stereo not drawn) [GT-09434, 4-(2,6-dichlorobenzamido)-N-(1-((2-(2,6-dioxopiperidin-3-yl)-1-thioxoisoindolin-5-yl)methyl)piperidin-4-yl)-1H-pyrazole-3-carboxamide], for which the inhibition at 0.5 µM was 53 to 60% and the inhibition at 2 µM was in the range of 80 to 100%.
For `CN(c1nccnc1CNc1nc(Nc2ccc(N3CCN(Cc4ccc5c(c4)C(=S)N(C4CCC(=O)NC4=O)C5)CC3)cc2)ncc1C(F)(F)F)S(C)(=O)=O` (stereo not drawn) [GT-09437, N-(3-(((2-((4-(4-((2-(2,6-dioxopiperidin-3-yl)-3-thioxoisoindolin-5-yl)methyl)piperazin-1-yl)phenyl)amino)-5-(trifluoromethyl)pyrimidin-4-yl)amino)methyl)pyrazin-2-yl)-N-methylmethanesulfonamide], in that order: 40 to 53% and 60 to 80%.
Consider `CN(c1cccc(CNc2nc(Nc3ccc(N4CCN(Cc5ccc6c(c5)C(=S)N(C5CCC(=O)NC5=O)C6)CC4)cc3)ncc2C(F)(F)F)c1)S(C)(=O)=O` (stereo not drawn) [GT-09438, N-(3-(((2-((4-(4-((2-(2,6-dioxopiperidin-3-yl)-3-thioxoisoindolin-5-yl)methyl)piperazin-1-yl)phenyl)amino)-5-(trifluoromethyl)pyrimidin-4-yl)amino)methyl)phenyl)-N-methylmethanesulfonamide], for which the inhibition at 0.5 µM was in the range of 53 to 60% and the inhibition at 2 µM was 60 to 80%.
For `Nc1ncnc2c1c(-c1ccc(Oc3ccccc3)cc1)nn2C1CCN(Cc2ccc3c(c2)C(=S)N(C2CCC(=O)NC2=O)C3)CC1` (stereo not drawn) [GT-09441, 3-(6-((4-(4-amino-3-(4-phenoxyphenyl)-1H-pyrazolo[3,4-d]pyrimidin-1-yl)piperidin-1-yl)methyl)-1-thioxoisoindolin-2-yl)piperidine-2,6-dione], in that order: 40 to 53% and 80 to 100%.
The corresponding values for `Cc1cc(-c2nc(C(=O)Nc3cc4oc(N5CCOCC5)nc4nc3N3CC[C@@H](O)C3)co2)ccn1` [emavusertib, Emavusertib, reference compound] are 0 to 10% and 0 to 10%.
